The values that follow are results of earlier work, collected in patent publication US20060069157A1, “Method of ameliorating or abrogating the effects of a neurodegenerative disorder, such as Huntington's disease, by sodium butyrate chemotherapy” (U.S. DEPARTMENT OF VETERANS AFFAIRS, priority 2004, published 2006).

The subject of one data set is Drosophila model of HD. To be noted: Drosophila model of HD (Steffan 2001); cited from earlier work.
The test system of a further data set is transgenic HD mice. To be noted: cyclodextrin as a carrier; transgenic HD mice (Hockly et al., 2003); cited from earlier work.

Structures are written as SMILES.

For the molecule `O=C(CCCCCCC(=O)Nc1ccccc1)NO` [SAHA, suberoylanilide hydroxamic acid], the “photoreceptor neuron degeneration and lethality” value with Drosophila model of HD is “slow photoreceptor neuron degeneration and ameliorate lethality”. Further, in the data set on transgenic HD mice, the histone levels result is on record as “increase histone levels” and the motor performance result is “improve motor performance”.
